Experiment: Stability of vitamin D2 in milk boiled twice (relative assay)
Assay type: physicochemical
Method: In an example, the effect of bioactive microsphere of the present disclosure on the stability of bioactive, when subjected to the deteriorating effect of processing parameter such as heating, was studied. The stability of vitamin D2 was determined by heating the milk containing the bioactive microsphere as prepared in Example 1, and the milk containing pure vitamin D2, i.e., control vitamin D2.
For the purpose of this example, both the vitamin D2 containing milk were boiled twice, and the amount of vitamin D2 was determined after second boiling, as shown in Table 1. The difference in the amount of vitamin D2 in the milk before boiling, and after the second boiling, illustrated the deteriorating effect of heat on the vitamin D2.

C=C1CC[C@H](O)C/C1=C/C=C1\CCC[C@]2(C)[C@@H]([C@H](C)/C=C/[C@H](C)C(C)C)CC[C@@H]12 [Control vitamin D2, vitamin D2]
Stability of vitamin D2 in milk on boiling (in words) (milk, boiled two times): deactivated on boiling | % Relative assay Before boiling (%) (vitamin D2 in milk, before boiling): 100% | % Degradation (vitamin D2 in milk, before boiling vs after second boiling): 65% | % Relative assay After second boiling (%) (vitamin D2 in milk, boiled twice, after second boiling): 35%

Source: US20260256699A1, “BIOACTIVE MICROSPHERE AND METHOD FOR PREPARATION THEREOF” (priority 2021, published 2026)
